Where two headings read alike, the source gives them in different places.
Key:
[1] = test system: Key Broadleaf Weed and Crop Species; test: Post-emergent Test II herbicidal activity (Table 5); assay type: in vivo; details: post-emergence, 336 h, 14 days after application; for pest or weed control at 70 g/ha: application rate 70 g ai/ha
Summary of the method: (§1)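 Compounds, dissolved in 97:3 acetone/DMSO and diluted into an aqueous carrier containing crop oil concentrate and Triton X-155, are applied over the top of young plants at 187 L/ha. Injury is scored visually at 14 d, 0% meaning no effect and 100% complete kill.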

[2] = test system: Key Grass and Sedge Weeds as well as Grass Crops; test: Post-emergent Test II herbicidal activity (Table 6); assay type: in vivo; details: post-emergence, 336 h; for pest or weed control at 70 g/ha: 70 g ai/ha
Summary of the method: as §1

[3] = ABUTH: velvetleaf (Abutilon theophrasti), read-out: Visual Growth Reduction (%) 14 Days After Application, ABUTH
[4] = ABUTH: velvetleaf (Abutilon theophrasti), application rate 140 g ai/ha, read-out: Visual Growth Reduction (%) 14 Days After Application, ABUTH
[5] = AMARE: redroot pigweed (Amaranthus retroflexus), read-out: Visual Growth Reduction (%) 14 Days After Application, AMARE
[6] = AMARE: redroot pigweed (Amaranthus retroflexus), application rate 140 g ai/ha, read-out: Visual Growth Reduction (%) 14 Days After Application, AMARE
[7] = BRSNN: oilseed-rape, canola (Brassica napus), read-out: Visual Growth Reduction (%) 14 Days After Application, BRSNN
[8] = BRSNN: oilseed-rape, canola (Brassica napus), application rate 140 g ai/ha, read-out: Visual Growth Reduction (%) 14 Days After Application, BRSNN
[9] = CHEAL: lambsquarters (Chenopodium album), read-out: Visual Growth Reduction (%) 14 Days After Application, CHEAL
[10] = CHEAL: lambsquarters (Chenopodium album), application rate 140 g ai/ha, read-out: Visual Growth Reduction (%) 14 Days After Application, CHEAL
[11] = EPHHL: wild poinsettia (Euphorbia heterophylla), read-out: Visual Growth Reduction (%) 14 Days After Application, EPHHL
[12] = EPHHL: wild poinsettia (Euphorbia heterophylla), application rate 140 g ai/ha, read-out: Visual Growth Reduction (%) 14 Days After Application, EPHHL
[13] = HELAN: sunflower (Helianthus annuus), read-out: Visual Growth Reduction (%) 14 Days After Application, HELAN
[14] = HELAN: sunflower (Helianthus annuus), application rate 140 g ai/ha, read-out: Visual Growth Reduction (%) 14 Days After Application, HELAN
[15] = VIOTR: wild pansy (Viola tricolor), read-out: Visual Growth Reduction (%) 14 Days After Application, VIOTR
[16] = VIOTR: wild pansy (Viola tricolor), application rate 140 g ai/ha, read-out: Visual Growth Reduction (%) 14 Days After Application, VIOTR
[17] = CYPES: yellow nutsedge (Cyperus esculentus), read-out: Visual Growth Reduction (%) 14 Days After Application, CYPES
[18] = CYPES: yellow nutsedge (Cyperus esculentus), 140 g ai/ha, read-out: Visual Growth Reduction (%) 14 Days After Application, CYPES
[19] = DIGSA: crabgrass (Digitaria sanguinalis), read-out: Visual Growth Reduction (%) 14 Days After Application, DIGSA
[20] = DIGSA: crabgrass (Digitaria sanguinalis), 140 g ai/ha, read-out: Visual Growth Reduction (%) 14 Days After Application, DIGSA
[21] = ECHCG: barnyardgrass (Echinochloa crus-galli), read-out: Visual Growth Reduction (%) 14 Days After Application, ECHCG
[22] = ECHCG: barnyardgrass (Echinochloa crus-galli), 140 g ai/ha, read-out: Visual Growth Reduction (%) 14 Days After Application, ECHCG
[23] = ORYSA: rice (Oryza sativa), crop, read-out: Visual Growth Reduction (%) 14 Days After Application, ORYSA
[24] = ORYSA: rice (Oryza sativa), crop, 140 g ai/ha, read-out: Visual Growth Reduction (%) 14 Days After Application, ORYSA
[25] = SETFA: giant foxtail (Setaria faberi), read-out: Visual Growth Reduction (%) 14 Days After Application, SETFA
[26] = SETFA: giant foxtail (Setaria faberi), 140 g ai/ha, read-out: Visual Growth Reduction (%) 14 Days After Application, SETFA
[27] = SORVU: grain sorghum (Sorghum vulgare), read-out: Visual Growth Reduction (%) 14 Days After Application, SORVU
[28] = SORVU: grain sorghum (Sorghum vulgare), 140 g ai/ha, read-out: Visual Growth Reduction (%) 14 Days After Application, SORVU
[29] = TRZSS (wheat, Triticum aestivum), crop, read-out: Visual Growth Reduction (%) 14 Days After Application, TRZSS
[30] = TRZSS (wheat, Triticum aestivum), crop, 140 g ai/ha, read-out: Visual Growth Reduction (%) 14 Days After Application, TRZSS
[31] = ZEAMX: maize, corn (Zea mays), crop, read-out: Visual Growth Reduction (%) 14 Days After Application, ZEAMX
[32] = ZEAMX: maize, corn (Zea mays), crop, 140 g ai/ha, read-out: Visual Growth Reduction (%) 14 Days After Application, ZEAMX

melting point | Structure (SMILES) | pest or weed control at 70 g/ha [1, 3] | pest or weed control at 140 g/ha [1, 4] | pest or weed control at 70 g/ha [1, 5] | pest or weed control at 140 g/ha [1, 6] | pest or weed control at 70 g/ha [1, 7] | pest or weed control at 140 g/ha [1, 8] | pest or weed control at 70 g/ha [1, 9] | pest or weed control at 140 g/ha [1, 10] | pest or weed control at 70 g/ha [1, 11] | pest or weed control at 140 g/ha [1, 12] | pest or weed control at 70 g/ha [1, 13] | pest or weed control at 140 g/ha [1, 14] | pest or weed control at 70 g/ha [1, 15] | pest or weed control at 140 g/ha [1, 16] | pest or weed control at 70 g/ha [2, 17] | pest or weed control at 140 g/ha [2, 18] | pest or weed control at 70 g/ha [2, 19] | pest or weed control at 140 g/ha [2, 20] | pest or weed control at 70 g/ha [2, 21] | further results
170.7 to 171.3 °C | C#Cc1ccc(-c2nc(N)c(OC)c(C(=O)O)n2)cc1 [Compound 28] | – | – | – | – | – | – | – | – | – | – | – | – | – | – | – | – | – | – | – | pest or weed control at 140 g/ha ([1]; ABUTH: velvetleaf (Abutilon theophrasti), 140 g ai/ha, post-emergent, read-out: Visual Growth Reduction (%) 14 Days After Application ABUTH): 0 to 29%; pest or weed control at 140 g/ha ([1]; AMARE: redroot pigweed (Amaranthus retroflexus), 140 g ai/ha, post-emergent, read-out: Visual Growth Reduction (%) 14 Days After Application AMARE): 95 to 100%; pest or weed control at 140 g/ha ([1]; BRSNN: oilseed-rape, canola (Brassica napus), 140 g ai/ha, post-emergent, read-out: Visual Growth Reduction (%) 14 Days After Application BRSNN): 0 to 29%; pest or weed control at 140 g/ha ([1]; CHEAL: lambsquarters (Chenopodium album), 140 g ai/ha, post-emergent, read-out: Visual Growth Reduction (%) 14 Days After Application CHEAL): 95 to 100%; pest or weed control at 140 g/ha ([1]; EPHHL: wild poinsettia (Euphorbia heterophylla), 140 g ai/ha, post-emergent, read-out: Visual Growth Reduction (%) 14 Days After Application EPHHL): 95 to 100%; pest or weed control at 140 g/ha ([1]; HELAN: sunflower (Helianthus annuus), 140 g ai/ha, post-emergent, read-out: Visual Growth Reduction (%) 14 Days After Application HELAN): 85 to 94%; pest or weed control at 140 g/ha ([1]; VIOTR: wild pansy (Viola tricolor), 140 g ai/ha, post-emergent, read-out: Visual Growth Reduction (%) 14 Days After Application VIOTR): 0 to 29%; pest or weed control at 140 g/ha ([2]; Triticum aestivum, TRZSS (wheat), application rate 140 g ai/ha, read-out: Visual Growth Reduction (%) 14 Days After Application, TRZSS): 0 to 29%; pest or weed control at 140 g/ha ([2]; CYPES: yellow nutsedge (Cyperus esculentus), application rate 140 g ai/ha, read-out: Visual Growth Reduction (%) 14 Days After Application, CYPES): 0 to 29%; pest or weed control at 140 g/ha ([2]; DIGSA: crabgrass (Digitaria sanguinalis), application rate 140 g ai/ha, read-out: Visual Growth Reduction (%) 14 Days After Application, DIGSA): 60 to 74%; pest or weed control at 140 g/ha ([2]; ECHCG: barnyardgrass (Echinochloa crus-galli), application rate 140 g ai/ha, read-out: Visual Growth Reduction (%) 14 Days After Application, ECHCG): 0 to 29%; pest or weed control at 140 g/ha ([2]; ORYSA: rice (Oryza sativa), application rate 140 g ai/ha, read-out: Visual Growth Reduction (%) 14 Days After Application, ORYSA): 0 to 29%; pest or weed control at 140 g/ha ([2]; SETFA: giant foxtail (Setaria faberi), application rate 140 g ai/ha, read-out: Visual Growth Reduction (%) 14 Days After Application, SETFA): 45 to 59%; pest or weed control at 140 g/ha ([2]; SORVU: grain sorghum (Sorghum vulgare), application rate 140 g ai/ha, read-out: Visual Growth Reduction (%) 14 Days After Application, SORVU): 0 to 29%; pest or weed control at 140 g/ha ([2]; ZEAMX: maize, corn (Zea mays), application rate 140 g ai/ha, read-out: Visual Growth Reduction (%) 14 Days After Application, ZEAMX): 60 to 74%
127 to 129 °C | COC(=O)c1nc(-c2ccc(OC(F)F)cc2F)c(F)c(N)c1Cl [Compound 104] | 45 to 59% | 45 to 59% | 0 to 29% | 0 to 29% | 0 to 29% | 0 to 29% | 0 to 29% | 0 to 29% | 75 to 84% | 85 to 94% | 75 to 84% | 75 to 84% | 0 to 29% | 0 to 29% | 0 to 29% | 45 to 59% | 0 to 29% | 0 to 29% | 0 to 29% | pest or weed control at 140 g/ha [2, 22]: 0 to 29%; pest or weed control at 70 g/ha [2, 23]: 0 to 29%; pest or weed control at 140 g/ha [2, 24]: 0 to 29%; pest or weed control at 70 g/ha [2, 25]: 0 to 29%; pest or weed control at 140 g/ha [2, 26]: 0 to 29%; pest or weed control at 70 g/ha [2, 27]: 0 to 29%; pest or weed control at 140 g/ha [2, 28]: 45 to 59%; pest or weed control at 70 g/ha [2, 29]: 0 to 29%; pest or weed control at 140 g/ha [2, 30]: 0 to 29%; pest or weed control at 70 g/ha [2, 31]: 45 to 59%; pest or weed control at 140 g/ha [2, 32]: 95 to 100%
190 to 192 °C | C#Cc1ccc(-c2nc(C(=O)OC)c(Cl)c(N)c2F)c(F)c1F [Compound 22] | 0 to 29% | 0 to 29% | 0 to 29% | 0 to 29% | 0 to 29% | 60 to 74% | 45 to 59% | 75 to 84% | 0 to 29% | 95 to 100% | 45 to 59% | 75 to 84% | 0 to 29% | 0 to 29% | 0 to 29% | 0 to 29% | 0 to 29% | 0 to 29% | 0 to 29% | pest or weed control at 140 g/ha [2, 22]: 45 to 59%; pest or weed control at 70 g/ha [2, 23]: 0 to 29%; pest or weed control at 140 g/ha [2, 24]: 0 to 29%; pest or weed control at 70 g/ha [2, 25]: 0 to 29%; pest or weed control at 140 g/ha [2, 26]: 0 to 29%; pest or weed control at 70 g/ha [2, 27]: 0 to 29%; pest or weed control at 140 g/ha [2, 28]: 0 to 29%; pest or weed control at 70 g/ha [2, 29]: 0 to 29%; pest or weed control at 140 g/ha [2, 30]: 0 to 29%; pest or weed control at 70 g/ha [2, 31]: 0 to 29%; pest or weed control at 140 g/ha [2, 32]: 45 to 59%
